Measured values from US20260297038A1, “ORTHO-PHTHALALDEHYDE-FUNCTIONALIZED ULTRAVIOLETABSORBERS AND VISIBLE CHROMOPHORES FOR SEMI-PERMANENT TOPICAL APPLICATIONS” (The Regents of the University of Colorado, a body corporate, priority 2023, published 2026).

Experiments:
[1] = Ultraviolet-visible absorption spectra of solutions of o-phthalaldehyde ultraviolet absorbers vs the parent carboxylic acids (FIG. 4); type: physicochemical; details: solution; for visible absorption introduced by the 3-(3,4-diformylphenyl)propyl moiety: compared with corresponding carboxylic acids
Text: FIG. 4 is a set of graphs of the ultraviolet-visible absorption spectra of solutions of (a) 4-((3-(2H-benzo[d][1,2,3]triazol-2-yl)-2-hydroxy-5-methylbenzyl)oxy)phthalaldehyde, prepared according to the process described in example 3, and 3-(3-(benzotriazole-2-yl)-5-tert-butyl-4-hydroxyphenyl)propanoic acid, (b) 3-(3-(2H-benzo[d][1,2,3]triazol-2-yl)-5-(tert-butyl)-4-hydroxyphenyl)propanoate, prepared according to the process described in Example 4, and 2-(4-diethylamino-2-hydroxybenzoyl)benzoic acid, (c) 3-(3,4-diformylphenyl)propyl 3-(4-methoxyphenyl)acrylate, prepared according to the process described in example 5, and 4-methoxycinnamic acid.

[2] = tested on: stratum corneum of excised porcine skin; experiment: Semi-permanent retention of topical mark on excised porcine skin after repeated washing, and localization after bisection (FIG. 7); details: for retention of the mark on skin after washing: gel dried 10 minutes, washed after 3 hours, washing procedure repeated five times
Text: FIG. 7 is a set of annotated visible and ultraviolet photographs of excised porcine skin areas exposed to the composition described in Example 8 according to the method of Example 10, labeled o-phthalaldehyde, accompanied by a positive control based on genipin and three negative controls based on a commercially available organic and mineral SPF-30 sunscreens and permanent black marker, taken before the skin was washed, then after one wash, after five washes, and after five washes and bisection.
20 mg of 3,6-dihydroxy-4,5-dimethyl-1,2-benzenedicarboxaldehyde was mixed directly into 230 mg of a gel comprising 79.715% v/v water, 20% v/v ethanol, and 0.285% v/v carbomer 940 and stirred mechanically until a homogenous gel was obtained.
Freshly excised porcine skin was allowed to hydrate in reverse-osmosis purified water for 4 h, then it was cut into rectangular samples and stored for 24 hours in a closed container on top of a paper towel saturated with a solution of 90% water and 10% glycerol. The stratum corneum was wiped with a cotton gauze pad saturated with an aqueous solution of lysine at a concentration of 2 wt %. The gel composition prepared as described in […] was scooped onto a spatula, which was used to apply a thin layer of the gel in a circle of approximately 1-cm diameter on the stratum corneum. After allowing the gel to dry on the skin for 10 minutes, the skin sample was returned to the closed container with the saturated paper towel to allow the skin to remain hydrate while the reaction continued to develop. After 3 hours, the skin was removed and washed liberally by scrubbing the skin with a loofah saturated with a soap solution of 10% alcanox in water until a foam lather was formed, rinsed with reverse-osmosis water, and wiped with a paper towel saturated with a 70% isopropanol solution, and finally patted dry with a paper towel. This washing procedure was repeated five times.

Row | Structure (SMILES) | alteration of the absorption profiles of the ultraviolet-absorbing moieties by the 3-(3,4-diformylphenyl)propyl moiety [1] | visible absorption introduced by the 3-(3,4-diformylphenyl)propyl moiety [1] | retention of the mark on skin after washing [2] | localization / penetration in skin layers ([2]; excessively washed, bisected through to the subcutis)
1 | CC(C)(C)c1cc(CCC(=O)OCCCc2ccc(C=O)c(C=O)c2)cc(-n2nc3ccccc3n2)c1O [Example 3, 3-(3,4-diformylphenyl)propyl 3-(3-(2H-benzo[d][1,2,3]triazol-2-yl)-5-(tert-butyl)-4-hydroxyphenyl)propanoate] | only minor alteration of the absorption profiles | without introducing substantial visible absorption | – | –
2 | COc1ccc(C=CC(=O)OCCCc2ccc(C=O)c(C=O)c2)cc1 [Example 5, 3-(3,4-diformylphenyl)propyl 3-(4-methoxyphenyl)acrylate] | only minor alteration of the absorption profiles | without introducing substantial visible absorption | – | –
3 | COC(=O)C1=CO[C@@H](O)[C@@H]2C(CO)=CC[C@H]12 [genipin, reference compound] | – | – | retained | –
4 | CCN(CC)c1ccc(C(=O)c2ccccc2C(=O)OCCCc2ccc(C=O)c(C=O)c2)c(O)c1 [Example 4, 3-(3,4-diformylphenyl)propyl 2-(4-(diethylamino)-2-hydroxybenzoyl)benzoate] | only minor alteration of the absorption profiles | without introducing substantial visible absorption | – | –
5 | Cc1c(C)c(O)c(C=O)c(C=O)c1O [3,6-dihydroxy-4,5-dimethyl-1,2-benzenedicarboxaldehyde] | – | – | retained | localized in the stratum corneum and did not penetrate to lower epidermal or dermal layers of the skin
